These results are taken from patent publication US9617244B2, “Antibacterial quinoline derivatives” (JANSSEN PHARMACEUTICA NV, priority 2012, dated 2017).

Converted amounts (≈) assume the structure as drawn.

The test system of assay [1] is Staphylococcus aureus (ATCC29213). Description: In-vitro anti-bacterial activity, microtitre plate assay, IC90 determination (non-mycobacterial strains). The class given is cell-based. Particulars: 90% inhibitory concentration for bacterial growth, resazurin fluorescence; for IC90 STA B29213: 24 hours; for IC90: Staphylococcus aureus, ATCC29213, 24 h, read-out: IC90 STA B29213. The method, boiled down:
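Growth inhibition measured fluorometrically with resazurin (530/590 nm) after overnight 37 °C incubation under normal atmosphere. Bacteria added at roughly 100 TCID50 per well in Mueller-Hinton broth to five-fold compound dilution series; IC90 reported in μg/ml.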
For orientation: Alamar Blue is a resazurin reagent that responds to reducing activity.

Assay [2] concerns Mycobacterium smegmatis (ATCC607). The assay is described as follows: In-vitro anti-bacterial activity against strain M. Smegmatis ATCC607. Format: cell-based. As to conditions: 90% inhibitory concentration for bacterial growth, Alamar Blue fluorescence; for IC90 MSM 607: 48 hours; for IC90: Mycolicibacterium smegmatis, ATCC607, 48 h, read-out: IC90 MSM 607. The method in brief:
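IC90 (μg/ml) derived from Alamar Blue fluorescence (530/590 nm) after 48 h growth at 37 °C under 5% CO2. About 250 CFU per well in Mueller-Hinton broth faced five-fold serial compound dilutions in BSA-containing wells.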

In the case of `Cc1cc(F)ccc1C1CC(O)(C(c2ccc(S(C)(=O)=O)cc2)c2cc3cc(Cl)ccc3[nH]c2=O)CCN1` (stereo not shown) [Compound 378], the “IC90 STA B29213” value in assay [1] came out at 14.86 µg/mL (≈ 26.8 µM). For the same compound, the “IC90 MSM 607” value in assay [2] was found to be 11.80 µg/mL (≈ 21.3 µM).

`COc1nc2ccc(Br)cc2cc1C(c1ccc(Cl)cc1)C1(O)CCNC(Cc2ccccn2)C1` (stereo not shown) [Compound 379]: the “IC90 STA B29213” value in assay [1] amounted to 3.49 µg/mL (≈ 6.31 µM). Further, the “IC90 MSM 607” value in assay [2] turned out to be 2.77 µg/mL (≈ 5.01 µM).

In the case of `COc1nc2ccc(Br)cc2cc1C(c1ccc(Cl)cc1)C1(O)CCNC(Cc2ccccn2)C1` (stereo not shown) [Compound 380], the “IC90 STA B29213” value in assay [1] was 5.16 µg/mL (≈ 9.33 µM). The “IC90 MSM 607” value in assay [2] stood at 4.10 µg/mL (≈ 7.42 µM).

As for `COc1nc2ccc(Br)cc2cc1C(c1ccc(Cl)cc1)C1(O)CCNC(Cc2ccccn2)C1` (stereo not shown) [Compound 381], the “IC90 STA B29213” value in assay [1] is 3.49 µg/mL (≈ 6.31 µM). Also, in assay [2], the “IC90 MSM 607” value was 1.75 µg/mL (≈ 3.17 µM).

Turning to `COc1nc2ccc(SC(C)C)cc2cc1C(c1ccc(Cl)cc1)C1(O)CCNC(Cc2ccccc2)C1` (stereo not shown) [Compound 382], the IC90 in assay [1] came out at 3.45 µg/mL (≈ 6.31 µM); in assay [2] it was 2.18 µg/mL (≈ 3.98 µM).

For the compound `COc1nc2ccc(SC(C)C)cc2cc1C(c1ccc(Cl)cc1)C1(O)CCNC(Cc2ccccc2)C1` (stereo not shown) [Compound 383], the “IC90 STA B29213” value in assay [1] amounted to 3.45 µg/mL (≈ 6.31 µM). In addition, in assay [2], the “IC90 MSM 607” value is 2.74 µg/mL (≈ 5.01 µM).

Turning to `COc1nc2ccc(SC(C)C)cc2cc1C(c1ccc(Cl)cc1)C1(O)CCNC(Cc2ccccc2)C1` (stereo not shown) [Compound 384], in assay [1], the “IC90 STA B29213” value amounted to 3.45 µg/mL (≈ 6.31 µM). In addition, the “IC90 MSM 607” value in assay [2] stood at 2.18 µg/mL (≈ 3.98 µM).

Take `COc1nc2ccc(SC(C)C)cc2cc1C(c1ccc(Cl)cc1)C1(O)CCNC(Cc2ccccc2)C1` (stereo not shown) [Compound 385]: in assay [1], the “IC90 STA B29213” value turned out to be 1.73 µg/mL (≈ 3.16 µM). Besides, in assay [2], the “IC90 MSM 607” value is 1.37 µg/mL (≈ 2.5 µM).

With `C=CCC1CNCCC1(O)C(c1cccc(Cl)c1)c1cc2cc(Cl)ccc2nc1OC` (stereo not shown) [Compound 394], the IC90 was determined as 2.89 µg/mL (≈ 6.32 µM) in assay [1] and 2.29 µg/mL (≈ 5.01 µM) in assay [2].

As to `COc1nc2ccc(SC)cc2cc1C(c1ccc(Cl)cc1)C1(O)CCNCC1(C)C` (stereo not shown) [Compound 396], the IC90 in assay [1] and in assay [2] was 5.75 µg/mL (≈ 12.6 µM) in each case.

As for `COc1nc2ccccc2cc1C(c1ccccc1)C1(O)CCNC(Cc2ccccc2)C1` (stereo not shown) [Compound 399], the IC90 in assay [1] and in assay [2] was above 12.5 µg/mL each time.

Turning to `COc1nc2ccccc2cc1C(c1ccccc1)C1(O)CCNC(Cc2ccccc2)C1` (stereo not shown) [Compound 400], the “IC90 STA B29213” value in assay [1] is above 12.47 µg/mL. Further, the “IC90 MSM 607” value in assay [2] was above 12.47 µg/mL.

As for `COc1nc2ccccc2cc1C(c1ccccc1)C1(O)CCNC(Cc2ccccc2)C1` (stereo not shown) [Compound 401], the “IC90 STA B29213” value in assay [1] is above 12.77 µg/mL. In assay [2], the “IC90 MSM 607” value was above 12.77 µg/mL.

For the compound `COc1nc2ccccc2cc1C(c1ccccc1)C1(O)CCNC(Cc2ccccc2)C1` (stereo not shown) [Compound 402], in assay [1], the “IC90 STA B29213” value was above 12.47 µg/mL. In addition, the “IC90 MSM 607” value in assay [2] came out at 12.47 µg/mL (≈ 28.4 µM).

Consider `COc1nc2ccc(Cl)cc2cc1C(c1ccc(Cl)cc1)C1(O)CCNC(c2ccccc2)C1` (stereo not shown) [Compound 403], for which the “IC90 STA B29213” value in assay [1] was 9.72 µg/mL (≈ 19.7 µM). Further, the “IC90 MSM 607” value in assay [2] came to 8.66 µg/mL (≈ 17.6 µM).

`COc1nc2ccc(Cl)cc2cc1C(c1ccc(Cl)cc1)C1(O)CCNC(c2ccccc2)C1` (stereo not shown) [Compound 404]: in assay [1], the “IC90 STA B29213” value came to 2.99 µg/mL (≈ 6.06 µM). The “IC90 MSM 607” value in assay [2] is 1.68 µg/mL (≈ 3.4 µM).

In the case of `COc1nc2ccc(Cl)cc2cc1C(c1ccc(Cl)cc1)C1(O)CCNC(c2ccccc2)C1` (stereo not shown) [Compound 405], the “IC90 STA B29213” value in assay [1] was 5.26 µg/mL (≈ 10.7 µM). Further, the “IC90 MSM 607” value in assay [2] was 2.63 µg/mL (≈ 5.33 µM).

For the compound `COc1nc2ccc(F)cc2cc1C(c1ccc(SC)cc1)C1(O)CCNC(c2ccc(F)cc2C)C1` (stereo not shown) [Compound 407], the “IC90 STA B29213” value in assay [1] was 1.65 µg/mL (≈ 3.17 µM). The “IC90 MSM 607” value in assay [2] was determined as 1.17 µg/mL (≈ 2.25 µM).

`COc1ccc2nc(OC)c(C(c3ccccc3)C3(O)CCNC(Cc4ccccc4)C3)cc2c1` (stereo not shown) [Compound 408]: the IC90 in assay [1] and in assay [2] was above 19.2 µg/mL each time.

For the compound `COc1nc2ccc(Cl)cc2cc1C(c1ccc(Cl)cc1)C1(O)CCNCC1c1ccccc1` (stereo not shown) [Compound 409], the “IC90 STA B29213” value in assay [1] turned out to be 2.01 µg/mL (≈ 4.07 µM). Also, the “IC90 MSM 607” value in assay [2] is 6.36 µg/mL (≈ 12.9 µM).

As usually defined, the IC90 is the concentration at which the effect reaches the 90% level.
